Molecular target: T1, chimeric human/mouse GPR119 (Homo sapiens, UniProt Q8TDV5, A235T/C313R/C323Y/E253K/F304I/F307L/G211A/G245S/H255C/K284R/L224V/L258Q/L288Q/L301F/P218V/P318T/Q252H/R262K/S214P/S219N/S228A/S309P/S322A/T217S/T239S/V227I/V300F)
T1 construct: the first 198 amino acids of human GPR119; the C-terminal 137 amino acids of the mouse receptor; expressed in transfected cells
T1 sequence (Q8TDV5 with tags, fused parts or gaps G211A/S214P/T217S/P218V/S219N/L224V/V227I/S228A/A235T/T239S/G245S/Q252H/E253K/H255C/L258Q/R262K/K284R/L288Q/V300F/L301F/F304I/F307L/S309P/C313R/P318T/S322A/C323Y): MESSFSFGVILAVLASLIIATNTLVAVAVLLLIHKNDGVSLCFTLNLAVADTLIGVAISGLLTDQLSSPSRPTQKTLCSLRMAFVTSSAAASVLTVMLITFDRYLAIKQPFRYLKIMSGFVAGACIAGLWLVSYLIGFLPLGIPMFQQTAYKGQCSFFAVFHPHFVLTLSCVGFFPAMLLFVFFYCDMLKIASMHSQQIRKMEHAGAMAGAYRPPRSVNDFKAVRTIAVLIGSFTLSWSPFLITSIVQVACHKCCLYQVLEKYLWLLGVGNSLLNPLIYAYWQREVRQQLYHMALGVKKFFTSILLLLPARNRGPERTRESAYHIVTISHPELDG
Assay: Tet-inducible cAMP assay (cAMP accumulation, HTRF)
Type: cell-based
Conditions: not given
Description: The in vitro modulation of recombinant human GPR119 was determined as follows.
A human-mouse chimeric GPR119 expression construct encoding 3 copies of the FLAG epitope tag, the first 198 amino acids of human GPR119 and the C-terminal 137 amino acids of the mouse receptor was cloned into a tetracycline inducible vector pcDNA5/FRT/TO (Invitrogen #V6520-20), which includes a hygromycin-resistance marker. Tightly controlled receptor expression was achieved by stable integration of this construct into the genome of a specific host cell line, Flp-In-T-Rex-HEK293, expressing the tetracycline repressor (Invitrogen). Once a stable hygromycin-resistant cell line was generated, the cells were maintained at 37° C. in a humidified 5% CO2 atmosphere in culture medium consisting of Dulbecco's modified Eagle's medium (DMEM; Invitrogen #11960) supplemented with 2 mM L-glutamine, 10% fetal bovine serum, 200 μg/ml hygromycin B, and 15 μg/ml blasticidin.
Forty-eight hours prior to the cAMP accumulation assay, cells stably expressing the chimeric human/mouse GPR119 construct were seeded at a density of 4×10^3 cells/well in 384 well poly-D-lysine coated solid white plates (BD #35-6661) and grown at 37° C. in a humidified 5% CO2 atmosphere in culture medium supplemented with 1 μg/ml tetracycline to induce expression of the receptor. On the day of the assay, medium was removed and cells were incubated for 50 min. at 37° C. in a humidified 5% CO2 atmosphere in 20 μl/well of assay buffer (phosphate-buffered saline with Ca^2+ and Mg^2+, 12 mM glucose, 0.1 mM isobutyl-methyl-xanthine, 0.1% fatty-acid free bovine serum albumin) with the desired concentration of compound added from a concentrated stock dissolved in dimethyl sulfoxide (DMSO) to give a final concentration of 1% DMSO in the assay. cAMP accumulation was measured using the CisBio homogeneous time resolved fluorescence (HTRF) assay kit (#62AM2PEC) following the manufacturer's protocol. Briefly, 10 μl each of the cAMP-HTRF fluorescence detection reagents were added to each well, and the samples were incubated for 40 min. at room temperature. Fluorescence was excited at 320 nm and measured at 665 and 620 nm using the Envision instrument (Perkin Elmer), the fluorescence ratio of 665/620 was calculated and converted to nanomolar concentrations of cAMP in each well by interpolation from a cAMP standard curve. The concentration-response curves and EC50 values were calculated with a four parameter logistic curve fit equation utilizing Excel/XLfit software (Microsoft and IDBS). The EC50 value was calculated as the concentration of agonist which increased the cAMP concentration to a value halfway between the baseline and the maximum.
Compounds of the present invention were tested in the Tet-inducible cAMP assay described immediately above and the results shown in Table 2 below were obtained.

Structure (SMILES)	EC50 [nM]
CCCc1cnc(N2CCC(C3Cc4cc(C5=CCN(S(=O)(=O)CCC)CC5)cc(F)c4O3)CC2)nc1 (racemic) [Example 5, (±)-2-(4-(7-Fluoro-5-(1-(propylsulfonyl)-1,2,3,6-tetrahydropyridin-4-yl)-2,3-dihydrobenzofuran-2-yl)piperidin-1-yl)-5-propylpyrimidine]	61.8
CCCc1cnc(N2CCC(C3Cc4cc(C5=CCN(S(=O)(=O)CCCCO)CC5)cc(F)c4O3)CC2)nc1 (stereo not drawn) [Example 4, 4-(4-(7-Fluoro-2-(1-(5-propylpyrimidin-2-yl)piperidin-4-yl)-2,3-dihydrobenzofuran-5-yl)-5,6-dihydropyridin-1(2H)-ylsulfonyl)butan-1-ol]	168
CCCc1cnc(N2CCC(C3Cc4cc(N5CCN(S(=O)(=O)CCC)CC5)ccc4O3)CC2)nc1 (stereo not drawn) [Example 9, 5-Propyl-2-(4-(5-(4-(propylsulfonyl)piperazin-1-yl)-2,3-dihydrobenzofuran-2-yl)piperidin-1-yl)pyrimidine]	1060
CCCS(=O)(=O)N1CC=C(c2ccc3c(c2)CC(C2CCN(C(=O)OC4CCCCC4)CC2)O3)CC1 (stereo not drawn) [Example 44]	9.7

Same assay, conditions: Flp-In-T-Rex-HEK293 cells, tetracycline-induced receptor expression; cAMP accumulation after 50 min at 37° C.; read-out: GPR119 EC50

EC50 [nM]	Structure (SMILES)
8.9	CC1(C2CCN(c3ncc(C4CC4)cn3)CC2)Cc2cc(C3=CCN(S(=O)(=O)CCCCO)CC3)ccc2O1 (stereo not drawn) [Example 11, 4-(4-(2-(1-(5-Cyclopropylpyrimidin-2-yl)piperidin-4-yl)-2-methyl-2,3-dihydrobenzofuran-5-yl)-5,6-dihydropyridin-1(2H)-ylsulfonyl)butan-1-ol]
2430	CCCS(=O)(=O)N1CCC(C2Cc3cc(C4=CCN(S(C)(=O)=O)CC4)ccc3O2)CC1 (stereo not drawn) [Example 21]
3.1	CCCS(=O)(=O)N1CC=C(c2cc(F)c3c(c2)CC(C2CCN(c4ncc(Cl)cn4)CC2)O3)CC1 (stereo not drawn) [Example 39]
3.4	CC(C)CS(=O)(=O)N1CC=C(c2cc(F)c3c(c2)CC(C2CCN(c4ncc(Cl)cn4)CC2)O3)CC1 (stereo not drawn) [Example 40]
82.7	CCCS(=O)(=O)N1CC=C(c2ccc3c(c2)CC(C2CCN(c4ccc(Cl)cn4)CC2)O3)CC1 (stereo not drawn) [Example 41]

Source: patent US8729084B2, “Benzofuranyl analogues as GPR119 modulators” (Bristol-Myers Squibb Company, priority 2010, dated 2014)
